Patent US20090124619A1, “NOVEL COMPOUNDS” (priority 2005, published 2009)

These compounds were tested against T1, TRPV4 (Homo sapiens, UniProt Q9HBA0) (assay: FLIPR assay using TRPV4 expressing HEK cells). Details: FLIPR method; pEC50 = −log10(EC50 μM).
T1 construct: expressed in transfected cells; host or cells: HEK cells
Format: cell-based
Source text: Other techniques used to measure TRPV4 channel receptor activation in chondrocytes include, but are not limited to: FLIPR assay, measuring a compound's capability to reduce the amount of ADAMTSs produced and/or released in response to a catabolic stimulus by a cell comprising a TRPV4 channel receptor; measuring a compound's capability to reduce the amount of MMPs produced and/or released in response to a catabolic stimulus by a cell comprising a TRPV4 channel receptor; measuring a compound's capability to effect the amount of nitric oxide (NO) produced in response to a catabolic stimulus by a cell comprising a TRPV4 channel receptor; and measuring a compound's capability to attenuate the inhibition of matrix synthesis in response to a catabolic stimulus by a cell comprising a TRPV4 channel receptor.
(§1) All exemplary compounds of the present invention were assessed using at least one of the biological assays presented above. Compounds presented in the Examples had EC50 values of about 0.01 μM to 30 μM as measured by Flex Station using bovine articular chondrocytes and pEC50 values between about 5.0 to about 7.5 as measured by FLIPR assay using TRPV4 expressing HEK cells.

T1 sequence (Q9HBA0 whole entry): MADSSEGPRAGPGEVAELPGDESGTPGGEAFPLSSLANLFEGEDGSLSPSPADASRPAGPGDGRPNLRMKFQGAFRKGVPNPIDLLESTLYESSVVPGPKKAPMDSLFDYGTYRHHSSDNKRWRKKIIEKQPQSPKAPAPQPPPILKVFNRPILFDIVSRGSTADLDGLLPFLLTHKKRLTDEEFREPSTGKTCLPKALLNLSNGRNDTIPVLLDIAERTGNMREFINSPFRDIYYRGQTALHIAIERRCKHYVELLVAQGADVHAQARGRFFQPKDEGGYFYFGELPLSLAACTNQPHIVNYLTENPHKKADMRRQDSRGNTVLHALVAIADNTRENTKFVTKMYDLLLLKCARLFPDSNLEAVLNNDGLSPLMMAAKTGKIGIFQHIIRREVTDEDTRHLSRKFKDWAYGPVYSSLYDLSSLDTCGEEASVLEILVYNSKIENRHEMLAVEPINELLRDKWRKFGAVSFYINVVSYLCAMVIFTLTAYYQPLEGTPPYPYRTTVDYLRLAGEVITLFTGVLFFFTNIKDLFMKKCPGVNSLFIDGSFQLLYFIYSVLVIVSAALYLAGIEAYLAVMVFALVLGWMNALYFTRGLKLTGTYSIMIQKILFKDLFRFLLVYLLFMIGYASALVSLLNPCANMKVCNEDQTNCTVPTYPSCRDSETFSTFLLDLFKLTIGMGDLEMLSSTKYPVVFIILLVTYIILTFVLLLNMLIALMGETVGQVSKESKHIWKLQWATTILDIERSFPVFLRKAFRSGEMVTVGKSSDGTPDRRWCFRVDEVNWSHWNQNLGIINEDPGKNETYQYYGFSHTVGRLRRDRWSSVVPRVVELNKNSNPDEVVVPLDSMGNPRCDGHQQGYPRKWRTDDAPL

Row | EC50 | Structure (SMILES)
1 | ≤ 0.1 µM | CC(C)C[C@H](NC(=O)c1cc2ccccc2s1)C(=O)NCC1CN(S(=O)(=O)c2ccc(Cl)cc2Cl)CCO1 (stereo partly drawn) [Example 14, N-((1S)-1-{[({4-[(2,4-dichlorophenyl)sulfonyl]-2-morpholinyl}methyl)amino]carbonyl}-3-methylbutyl)-1-benzothiophene-2-carboxamide]
2 | 1.12 to 10 µM | O=C(CCC1CCCC1)N[C@H](C(=O)NCC1CN(S(=O)(=O)c2ccc(Cl)cc2Cl)CCO1)c1ccccc1 (stereo partly drawn) [Example 60, 3-cyclopentyl-N-{(1S)-2-[({4-[(2,4-dichlorophenyl)sulfonyl]-2-morpholinyl}methyl)amino]-2-oxo-1-phenylethyl}propanamide]
3 | 0.1 to 1.12 µM | CC(C)[C@H](NC(=O)CCC1CCCC1)C(=O)NCC1CN(S(=O)(=O)c2ccccc2C#N)CCO1 (stereo partly drawn) [Example 44, N1-({4-[(2-cyanophenyl)sulfonyl]-2-morpholinyl}methyl)-N2-(3-cyclopentylpropanoyl)-L-valinamide]

These compounds were tested against T2, TRPV4 channel receptors (Bos taurus, UniProt A0A8F4X677) (assay: Ca2+ influx, Fura-2 fluorescence on FlexStation in bovine articular chondrocytes). Details: not given.
T2 construct: obtained using this method in bovine articular chondrocytes; endogenous in cells; host or cells: bovine articular chondrocytes (primary)
T2 sequence (A0A8F4X677 1-871): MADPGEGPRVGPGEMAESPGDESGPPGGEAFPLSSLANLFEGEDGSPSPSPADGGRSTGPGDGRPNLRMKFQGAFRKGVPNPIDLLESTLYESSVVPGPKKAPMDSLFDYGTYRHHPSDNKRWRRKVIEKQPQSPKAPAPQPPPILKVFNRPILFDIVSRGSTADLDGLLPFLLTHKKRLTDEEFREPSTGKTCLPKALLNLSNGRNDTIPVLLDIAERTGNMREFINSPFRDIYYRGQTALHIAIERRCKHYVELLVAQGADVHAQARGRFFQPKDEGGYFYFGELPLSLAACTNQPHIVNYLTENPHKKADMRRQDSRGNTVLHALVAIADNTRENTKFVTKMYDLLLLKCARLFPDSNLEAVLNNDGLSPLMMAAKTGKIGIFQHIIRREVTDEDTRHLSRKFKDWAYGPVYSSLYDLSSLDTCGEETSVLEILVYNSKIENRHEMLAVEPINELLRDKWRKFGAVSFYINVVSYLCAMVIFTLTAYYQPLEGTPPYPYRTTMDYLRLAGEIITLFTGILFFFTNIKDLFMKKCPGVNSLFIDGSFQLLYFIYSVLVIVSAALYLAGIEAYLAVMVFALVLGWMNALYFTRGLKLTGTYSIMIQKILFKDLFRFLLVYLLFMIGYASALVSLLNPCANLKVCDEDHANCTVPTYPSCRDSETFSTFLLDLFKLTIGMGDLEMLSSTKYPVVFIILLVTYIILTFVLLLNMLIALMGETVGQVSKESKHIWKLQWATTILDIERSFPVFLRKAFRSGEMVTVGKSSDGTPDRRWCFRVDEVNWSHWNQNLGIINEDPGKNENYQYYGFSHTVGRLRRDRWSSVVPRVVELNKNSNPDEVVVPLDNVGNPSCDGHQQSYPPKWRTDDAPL
Format: cell-based
Source text: Ca^2+ influx mediated through TRPV4 channel receptors can be measured using articular chondrocytes from such species as, but not limited to, human, rat, canine, rabbit, monkey, and bovine, using standard techniques in the art such as, but not limited to, Fura-2 (Invitrogen/Molecular Probes, Eugene, Oreg.) fluorescence using a FlexStation (manufactured by Molecular Devices, Sunnyvale, Calif.). Table 1 lists biological data for several representative compounds obtained using this method in bovine articular chondrocytes.
as §1

Row | EC50 | Structure (SMILES)
4 | 0.16 to 0.9 µM | CC(C)C[C@H](NC(=O)c1cc2ccccc2s1)C(=O)NC[C@H]1CN(S(=O)(=O)c2ccccc2C#N)CCO1 [Example 24, N-((1S)-1-{[({(2S)-4-[(2-cyanophenyl)sulfonyl]-2-morpholinyl}methyl)amino]carbonyl}-3-methylbutyl)-1-benzothiophene-2-carboxamide]
5 | > 0.9 µM | CC[C@H](C)[C@H](NC(=O)c1cc2ccccc2s1)C(=O)NCC1CN(S(=O)(=O)c2ccccc2C#N)CCO1 (stereo partly drawn) [Example 18, N-((1S,2S)-1-{[({4-[(2-cyanophenyl)sulfonyl]-2-morpholinyl}methyl)amino]carbonyl}-2-methylbutyl)-1-benzothiophene-2-carboxamide]
6 | 0.001 to 0.16 µM | CC(C)C[C@H](NC(=O)c1cc2ccccc2s1)C(=O)NC[C@@H]1CN(S(=O)(=O)c2ccccc2C#N)CCO1 [Example 21, N-((1S)-1-{[({(2R)-4-[(2-cyanophenyl)sulfonyl]-2-morpholinyl}methyl)amino]carbonyl}-3-methylbutyl)-1-benzothiophene-2-carboxamide]
